Patent US20240287065A1, “COMPOUND AS CDK KINASE INHIBITOR AND USE THEREOF” (TYK MEDICINES (ZHENGZHOU) , INC., priority 2021, published 2024)

Experiments:
HCC1806 cells = test: Cell proliferation inhibition assay (MTT, 7 days); assay type: cell-based; settings: Homo sapiens, HCC1806, 168 h, HCC1086 [sic], 7 days incubation
How it was run: (§1)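 Cells were seeded per well at 3000 (MCF7, T47D), 2500 (OVCAR3) or 2000 (HCC1806) and attached overnight. Nine 3-fold compound dilutions (10000-1.52 nM before addition to cells, 0.1% DMSO medium) were applied for 7 days, refreshed on day 4, in 4 replicates. MTT (3 h) was read at 570 nm, normalised to DMSO and blank, and IC50 fitted by three-parameter curve.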

MCF7 cells = test: Cell proliferation inhibition assay (MTT, 7 days); assay type: cell-based; settings: Homo sapiens, 168 h, 7 days incubation
How it was run: as §1

OVCAR3 cells = test: Cell proliferation inhibition assay (MTT, 7 days); assay type: cell-based; settings: Homo sapiens, OVCAR-3, 168 h, 7 days incubation
How it was run: as §1

T47D cells = test: Cell proliferation inhibition assay (MTT, 7 days); assay type: cell-based; settings: Homo sapiens, 168 h, 7 days incubation
How it was run: as §1

CDK2/CycE1 = CDK2/CycE1 (Homo sapiens, UniProt P24941); test: Enzyme activity test; assay type: biochemical;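 further: values come from the source column headed CDK2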
How it was run: (§2)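 Mobility-shift read-out on EZ Reader after a 150 min room-temperature reaction started with ATP. Before that, the kinase, substrate and cofactor mix sat 30 min with compound delivered from a […] DMSO stock. Inhibition was expressed relative to DMSO-only and enzyme-free wells.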

CDK4/CycD3 = CDK4/CycD3 (Homo sapiens, UniProt P11802); test: Enzyme activity test; assay type: biochemical;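 further: values come from the source column headed CDK4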
How it was run: as §2

CDK6/CycD1 = CDK6/CycD1 (Homo sapiens, UniProt Q00534); test: Enzyme activity test; assay type: biochemical;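 further: values come from the source column headed CDK6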
How it was run: as §2

Chain of CDK6/CycD1 (Q00534 whole entry, species assumed): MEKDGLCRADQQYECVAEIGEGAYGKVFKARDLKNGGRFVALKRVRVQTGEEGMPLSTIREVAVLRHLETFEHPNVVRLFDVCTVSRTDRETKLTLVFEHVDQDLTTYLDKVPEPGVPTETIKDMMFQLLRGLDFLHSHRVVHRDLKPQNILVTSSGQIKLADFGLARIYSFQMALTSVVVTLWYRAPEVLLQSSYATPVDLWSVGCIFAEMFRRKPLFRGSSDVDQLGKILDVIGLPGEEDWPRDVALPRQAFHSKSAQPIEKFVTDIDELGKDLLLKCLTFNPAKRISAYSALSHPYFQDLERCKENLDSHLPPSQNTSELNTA
Chain of CDK6/CycD1 (P24385 whole entry partner, species assumed): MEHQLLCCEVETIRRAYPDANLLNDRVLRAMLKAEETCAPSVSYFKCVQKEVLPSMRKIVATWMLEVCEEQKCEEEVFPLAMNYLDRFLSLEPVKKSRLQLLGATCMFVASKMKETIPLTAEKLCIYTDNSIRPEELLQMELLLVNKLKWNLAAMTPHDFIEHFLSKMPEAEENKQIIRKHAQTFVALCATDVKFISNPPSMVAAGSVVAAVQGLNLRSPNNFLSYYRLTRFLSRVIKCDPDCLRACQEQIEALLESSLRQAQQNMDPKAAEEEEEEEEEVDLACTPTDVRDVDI
Chain of CDK4/CycD3 (P11802 whole entry, species assumed): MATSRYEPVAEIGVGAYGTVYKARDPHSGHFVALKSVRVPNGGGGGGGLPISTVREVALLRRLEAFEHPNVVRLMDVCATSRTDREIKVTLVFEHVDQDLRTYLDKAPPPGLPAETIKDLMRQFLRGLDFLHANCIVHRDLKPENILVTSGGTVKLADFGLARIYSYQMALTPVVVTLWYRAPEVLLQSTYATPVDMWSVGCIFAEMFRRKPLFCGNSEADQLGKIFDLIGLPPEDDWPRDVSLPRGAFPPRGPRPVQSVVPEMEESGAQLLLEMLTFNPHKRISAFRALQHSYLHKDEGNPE
Chain of CDK4/CycD3 (P30281 whole entry partner, species assumed): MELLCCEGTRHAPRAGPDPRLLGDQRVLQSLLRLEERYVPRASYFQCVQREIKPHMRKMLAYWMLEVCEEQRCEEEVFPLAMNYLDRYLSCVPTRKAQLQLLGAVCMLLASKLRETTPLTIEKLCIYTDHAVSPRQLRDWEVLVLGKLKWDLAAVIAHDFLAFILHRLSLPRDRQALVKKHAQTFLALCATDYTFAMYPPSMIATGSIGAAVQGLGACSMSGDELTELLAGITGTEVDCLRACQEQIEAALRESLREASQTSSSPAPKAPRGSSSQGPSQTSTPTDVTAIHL

In the case of `C[C@@]1(O)CCC[C@H]1n1c(=O)c(OC(F)F)cc2cnc(NC3CCN(S(C)(=O)=O)CC3)nc21` [Example 3], the IC50 (HCC1806 cells) is reported as 50 to 5200 nM, the IC50 (MCF7 cells) is reported as 50 to 5200 nM and the IC50 (OVCAR3 cells) is reported as no more than 50 nM. It also gave an IC50 (T47D cells) of 50 to 5200 nM, an IC50 (CDK2/CycE1) of less than 10 nM and an IC50 (CDK4/CycD3) of less than 10 nM. It also gave an IC50 (CDK6/CycD1) of less than 10 nM.

Work on `C[C@@]1(O)CCC[C@H]1n1c(=O)c(C(F)F)cc2cnc(NC3CCN(S(C)(=O)=O)CC3)nc21` [PF-06873600, reference compound] yielded an IC50 (HCC1806 cells) of 50 to 5200 nM, an IC50 (MCF7 cells) of 50 to 5200 nM and an IC50 (OVCAR3 cells) of 50 to 5200 nM. It also gave an IC50 (T47D cells) of no more than 50 nM.
